According to publication PMC9926234, “Iterative computational design and crystallographic screening identifies potent inhibitors targeting the Nsp3 macrodomain of SARS-CoV-2” (Proceedings of the National Academy of Sciences of the …, 2023):

Experiments:
SARS-CoV-2 NSP3 Mac1 [1] = target: T1, SARS-CoV-2 NSP3 Mac1 (Severe acute respiratory syndrome coronavirus 2, UniProt P0DTD1); format: binding; design: contains a conserved macrodomain enzyme (Mac1); conditions: maximal thermal upshift vs DMSO control
Protocol: DSF and associated compound handling was performed as described ([12]), with 5 µM dye “Fluorescent Yellow” (Jacquard iDye Cat #JID1405) used in place of SYPRO Orange. Compounds were tested in triplicate, at seven concentrations in two-fold serial dilutions, at a top concentration of either 1,000 or 100 μM. To minimize experimental noise arising from plate location-based effects on Tma, all concentrations and replicates for each compound were tested within a single region of the microtiter plates, including a DMSO-only control from which ΔTmas were calculated for that compound. […] For each compound, to determine statistical significance of the dose responsive thermal shift, the Spearman’s coefficient was calculated between compound concentration and ΔTma.

SARS-CoV-2 NSP3 Mac1 [2] = target: T1, SARS-CoV-2 NSP3 Mac1; format: binding; conditions: true hit = binding in crystallographic soaking or the HTRF-based binding assay

`Cc1ccc(CC(=O)OCc2noc(C3CC3)n2)cc1O` [Z2995] was tested, and the “DSF max dTma” value (SARS-CoV-2 NSP3 Mac1 [1]) was 0.32 °C.

For `CN(c1cc(NC2CC2)ncn1)C1CCCN(c2cccnn2)C1` (centres unmarked) [Z3167], the “DSF max dTma” value (SARS-CoV-2 NSP3 Mac1 [1]) was 0.44 °C.

In the case of `CN(Cc1ncc(Cl)n1C)c1ncnc(N)n1` [Z3291], the “DSF max dTma” value (SARS-CoV-2 NSP3 Mac1 [1]) is reported as 0.98 °C.

For `O=C(Nc1nc2ccccc2c(=O)[nH]1)c1cccnc1` [Z3628], the “DSF max dTma” value (SARS-CoV-2 NSP3 Mac1 [1]) was 0.49 °C.

For `CN(C(=O)CN1CCNC(=O)C1)c1ccc(-c2nccs2)cc1` [Z3700], the “DSF max dTma” value (SARS-CoV-2 NSP3 Mac1 [1]) was 0 °C.

With `Cc1oc(-c2cccs2)nc1Cc1nc(-c2cncnc2N)no1` [Z3789] the “DSF max dTma” value (SARS-CoV-2 NSP3 Mac1 [1]) was 0.56 °C.

For `Cc1cc(-n2cncn2)ccc1C(=O)OCC1OCCc2ccccc21` (centres unmarked) [Z3896], the “DSF max dTma” value (SARS-CoV-2 NSP3 Mac1 [1]) was 0.63 °C.

With `Cc1ccccc1CC(C)c1nc(-c2cc(N)ncn2)no1` (centres unmarked) [Z4066] the “DSF max dTma” value (SARS-CoV-2 NSP3 Mac1 [1]) was 0.98 °C.

In the case of `CC(C(=O)N1CCCC1c1nc(C(N)=O)no1)c1cccc(F)c1` (centres unmarked) [Z4135], the “DSF max dTma” value (SARS-CoV-2 NSP3 Mac1 [1]) is reported as 0.15 °C.

`O=C(c1cccc(O)c1)N1CC=C(c2ccccc2)C1` [Z4141] was tested, and the “DSF max dTma” value (SARS-CoV-2 NSP3 Mac1 [1]) was 0.71 °C.

`O=C(c1cccc(O)c1)N1CCC(Nc2ccccc2)C1` (centres unmarked) [Z4508] was tested, and the “DSF max dTma” value (SARS-CoV-2 NSP3 Mac1 [1]) was 0.37 °C.

`Cc1nc2c(C(=O)OCc3ccnc(N(C)C)c3)ccnc2[nH]1` [Z4620] was tested, and the “DSF max dTma” value (SARS-CoV-2 NSP3 Mac1 [1]) was 1.08 °C.

With `COC(=O)CC1CN(c2ncnc3[nH]ccc23)c2ccccc21` (centres unmarked) [Z4911] the “DSF max dTma” value (SARS-CoV-2 NSP3 Mac1 [1]) was 0.79 °C.

For `Nc1cc(-c2noc(CCn3cccn3)n2)ncn1` [Z5086], the “DSF max dTma” value (SARS-CoV-2 NSP3 Mac1 [1]) was 1.48 °C.

With `CC1c2ccc(F)cc2CCN1C(=O)c1cccc(O)c1` (centres unmarked) [Z5167] the “DSF max dTma” value (SARS-CoV-2 NSP3 Mac1 [1]) was 0 °C.

For `Cc1nc(Cc2noc(Cc3ccc4[nH]ncc4c3)n2)no1` [Z5262], the “DSF max dTma” value (SARS-CoV-2 NSP3 Mac1 [1]) was 0.45 °C.

For `Fc1ccc(F)c(Sc2ncnc3[nH]ccc23)c1` [Z5289], the “DSF max dTma” value (SARS-CoV-2 NSP3 Mac1 [1]) was 1.24 °C.

For `Cc1csc(=Nc2ccccc2)n1Cc1nnc2n1CCNC2=O` [Z5356], the “DSF max dTma” value (SARS-CoV-2 NSP3 Mac1 [1]) was 0.51 °C.

`O=C(c1c(F)ccc(O)c1F)N1CCC(Oc2cccc(F)c2)C1` (centres unmarked) [Z5547] was tested, and the “DSF max dTma” value (SARS-CoV-2 NSP3 Mac1 [1]) was 0.07 °C.

With `CC(c1ccc(Cl)c(Cl)c1)S(=O)(=O)Cc1cn[nH]c1` (centres unmarked) [Z5728] the “DSF max dTma” value (SARS-CoV-2 NSP3 Mac1 [1]) was 0 °C.

For `Nc1ncnc2c1ncn2CCCc1ccsc1` [Z5972], the “DSF max dTma” value (SARS-CoV-2 NSP3 Mac1 [1]) was 0.51 °C.

For `Cc1ccc(-c2noc(C3CC(=O)N(c4cn[nH]c4)C3)n2)cc1` (centres unmarked) [Z6019], the “DSF max dTma” value (SARS-CoV-2 NSP3 Mac1 [1]) was 0.27 °C.

In the case of `CNc1cc(-c2noc(CN3CCCC3=O)n2)ncn1` [Z6028], the “DSF max dTma” value (SARS-CoV-2 NSP3 Mac1 [1]) is reported as 0.33 °C.

`N#Cc1cccc(-n2ccc(C(=O)OCc3cccnc3)n2)c1` [Z6395] was tested, and the “DSF max dTma” value (SARS-CoV-2 NSP3 Mac1 [1]) was 0.18 °C.

`COc1ccc(-c2nnc(NC(=O)Cc3ncccc3F)s2)cc1` [Z6468] was tested, and the “DSF max dTma” value (SARS-CoV-2 NSP3 Mac1 [1]) was 0.58 °C.

In the case of `Cc1nc(S(=O)(=O)NCc2ccc(-c3ccncc3)cc2)cn1C` [Z7041], the “DSF max dTma” value (SARS-CoV-2 NSP3 Mac1 [1]) is reported as 0.35 °C.

`Clc1cc2c(N3CCCC(c4nnc[nH]4)C3)ncnc2[nH]1` (centres unmarked) [Z7156] was tested, and the “DSF max dTma” value (SARS-CoV-2 NSP3 Mac1 [1]) was 0.86 °C.

For `Cc1cc(C)nc(CSc2nnc3c(=O)[nH]c4ccccc4n23)c1` [Z7570], the “DSF max dTma” value (SARS-CoV-2 NSP3 Mac1 [1]) was 0.36 °C.

`O=C(NC1c2cccc(O)c2CC1C(=O)O)c1ccc(Nc2cccnc2)cc1` (centres unmarked) [Z8539_0018] was tested, and the “HIT*” value (SARS-CoV-2 NSP3 Mac1 [2]) was “Y”.
